In general, EC50 refers to the midpoint of the concentration-response curve.

Molecules are shown by their SMILES.

From ChEMBL document CHEMBL1158593, “Structure-activity relationships in human toll-like receptor 7-active imidazoquinoline analogues” (J Med Chem, 2010) come the findings set out here.

The target in the assay is T1, Toll-like receptor 7 (Homo sapiens, UniProt Q9NYK1).
T1 sequence (Q9NYK1 whole entry): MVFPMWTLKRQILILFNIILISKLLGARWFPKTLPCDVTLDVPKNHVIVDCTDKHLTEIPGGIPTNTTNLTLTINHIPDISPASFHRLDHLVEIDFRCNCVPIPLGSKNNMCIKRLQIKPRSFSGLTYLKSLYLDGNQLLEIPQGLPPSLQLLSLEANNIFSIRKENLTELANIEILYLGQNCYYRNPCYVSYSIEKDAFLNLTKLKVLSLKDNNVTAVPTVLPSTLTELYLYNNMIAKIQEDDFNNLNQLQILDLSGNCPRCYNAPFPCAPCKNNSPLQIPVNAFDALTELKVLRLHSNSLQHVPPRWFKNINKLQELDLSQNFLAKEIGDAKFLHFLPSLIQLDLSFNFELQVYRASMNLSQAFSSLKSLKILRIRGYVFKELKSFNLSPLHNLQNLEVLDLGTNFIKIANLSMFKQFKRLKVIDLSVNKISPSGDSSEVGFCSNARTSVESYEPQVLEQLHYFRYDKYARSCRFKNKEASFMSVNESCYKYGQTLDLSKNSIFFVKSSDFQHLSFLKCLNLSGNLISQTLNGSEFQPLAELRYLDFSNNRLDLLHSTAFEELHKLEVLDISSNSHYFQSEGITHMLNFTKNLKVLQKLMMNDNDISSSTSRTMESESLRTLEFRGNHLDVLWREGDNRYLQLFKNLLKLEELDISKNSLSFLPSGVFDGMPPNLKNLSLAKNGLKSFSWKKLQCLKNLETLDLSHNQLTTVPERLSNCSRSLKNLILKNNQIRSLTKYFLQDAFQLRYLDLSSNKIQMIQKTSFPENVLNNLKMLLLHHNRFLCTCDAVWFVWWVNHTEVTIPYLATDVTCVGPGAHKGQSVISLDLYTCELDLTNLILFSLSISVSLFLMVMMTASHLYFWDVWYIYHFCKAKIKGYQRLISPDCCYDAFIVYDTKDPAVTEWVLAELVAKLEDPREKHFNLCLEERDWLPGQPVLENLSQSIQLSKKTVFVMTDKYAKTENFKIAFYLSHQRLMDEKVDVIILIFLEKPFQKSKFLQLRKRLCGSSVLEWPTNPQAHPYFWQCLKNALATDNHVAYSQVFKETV
Description: Agonist activity at human TLR7 expressed in NF-kappaB-stimulated HEK293 cells assessed as induction of secreted alkaline phosphatase expression by reporter gene assay
For the compound `CCCCCCCc1nc2c(N)nc3ccccc3c2n1Cc1ccccc1`, the EC50 came to 822 nM.

For the compound `CCCCCCCCCc1nc2c(N)nc3ccccc3c2n1Cc1ccccc1`, the EC50 came out at 3350 nM.

On to `CCN(CCC#N)Cc1nc2c(N)nc3ccccc3c2n1CC(C)(C)O`, for which the response was half-maximal at 8390 nM (EC50). Against the preceding compound, the EC50 is about 2.5-fold higher.

Turning to `CCNCc1nc2c(N)nc3ccccc3c2n1Cc1ccccc1`, a half-maximal response (EC50) required 385 nM. Compared with the last compound, the EC50 is about 22-fold lower.

`CCCc1nc2c(N)nc3ccccc3c2n1Cc1ccccc1` returned an EC50 of 647 nM.

Consider `C#CCCc1nc2c(N)nc3ccccc3c2n1Cc1ccccc1`, for which a half-maximal effect (EC50) was put at 209 nM.

As to `CC(C)Cn1cnc2c(N)nc3ccccc3c21` [IMIQUIMOD], it took 2120 nM to reach a half-maximal effect (EC50).

Compound `CCCCCCc1nc2c(N)nc3ccccc3c2n1Cc1ccccc1` yielded an EC50 of 479 nM.

The compound `CCc1nc2c(N)nc3ccccc3c2n1Cc1ccccc1` came in with an EC50 of 472 nM.

As for `CCCCCc1nc2c(N)nc3ccccc3c2n1Cc1ccccc1`, a half-maximal effect (EC50) was put at 91.5 nM. This EC50 is about 5.2-fold lower than that of the compound before.

`CCCCc1nc2c(NN)nc3ccccc3c2n1Cc1ccccc1` displayed an EC50 of 873 nM.

Take `C=CCCc1nc2c(N)nc3ccccc3c2n1Cc1ccccc1`: it took 262 nM to reach a half-maximal effect (EC50).

For `Cc1nc2c(N)nc3ccccc3c2n1Cc1ccccc1`, a half-maximal effect (EC50) was put at 955 nM.

`CCN(CC)Cc1nc2c(N)nc3ccccc3c2n1CC(C)(C)O`: the EC50 was 7710 nM.

Turning to `CCCCc1nc2c(NO)nc3ccccc3c2n1Cc1ccccc1`, the EC50 came to 723 nM.

On to `CCCCc1nc2c(N)nc3ccccc3c2n1Cc1ccccc1`, for which the EC50 is 59.1 nM.
